Test results: publication PMC4865820, “Branched Peptide, B2088, Disrupts the Supramolecular Organization of Lipopolysaccharides and Sensitizes the Gram-negative Bacteria” (Scientific Reports, 2016)
Positions of bridges follow the written chain, without caps; N, C: chain ends. Non-standard residues stand in square brackets, D forms with d. Residues, ends and D or L forms follow the SMILES beside them. Chains are numbered I, II in the order given. Bip = N[C@@H](Cc1ccc(-c2ccccc2)cc1)C(=O)O; Nle = CCCC[C@H](N)C(=O)O; Nva = CCC[C@H](N)C(=O)O

Columns and labels:
P. aeruginosa ATCC 27853 [1] = assay: microbe, parasite or virus in culture; type: cell-based; conditions: ATCC 27853, 24 h
Description: (§1) MIC of each peptide was determined using the microdilution method in a 96 well microtitre plates (SPL Life Sciences Co., Ltd, Korea). Two-fold serial dilutions of each peptide in Mueller-Hinton Broth (MHB) was prepared from a 1 mg/ml stock solution of the peptide in the same broth, to obtain a final concentration in the range of 0.0976–50 μg/ml in each well. Bacterial suspensions (P. aeruginosa ATCC 27853, P. aeruginosa 4877, P. aeruginosa 23155, K. pneumoniae ATCC 10031 and K. pneumoniae 4299) were prepared by suspending the overnight cultured bacteria in saline and adjusting the inoculum to ~10^8 colony forming units (CFU) per ml. A further 150-fold dilution was then prepared in MHB to achieve a final cell density of 10^5–10^6 CFU/ml. In each well, 100 μl of inoculum was mixed with the equal volume of peptides at their 2× concentration. Positive and negative controls contained 200 μl of inoculum (without any peptide) and broth alone (no peptide/inoculum) respectively. Another negative control in which MHB containing 200 μl of peptide alone in its highest concentration tested (50 μg/ml) was also included to ensure that the optical density measured in the test wells was not due to turbidity of the peptides in solution. The 96 well polystyrene plates were then incubated at 37 °C for 24 h and the optical density at 600 nm (OD600) was measured every 30 min continuously using a TECAN microplate reader (TECAN Infinite 200, Austria). All the experiments were performed in two independent duplicates and the MIC was determined as the lowest peptide concentration in which no visible growth was observed.

P. aeruginosa ATCC 9027 = assay: Outer membrane permeability assay (NPN); type: cell-based; conditions: no unit in table; Fig. S5 axis [Peptide], μM; 10 μM NPN, 5 mM HEPES pH 7.4, ex 355/em 405 nm; average of two titrations; read-out: PC50 (peptide concentration for half-maximal NPN intensity, OM permeability)
Description: The ability of each peptide to permeabilize the OM of Gram-negative organisms was determined using the hydrophobic fluorescent probe 1-N-phenylnaphthylamine (NPN) as previously reported. P. aeruginosa ATCC 9027 cells from an overnight MHB culture were harvested after centrifuging at 3000 rpm for 10 minutes. The pellet was washed twice, suspended in 5 mM HEPES (N- 2-hydroxyethylpiperazine-N’-2 ethanesulfonic acid) buffer (pH 7.4) and adjusted to an OD600 of 0.200. A suspension containing 600 μl of bacteria cells and 1 μl of a concentrated stock solution of NPN was mixed into a 10 mm stirred quartz cuvette so that the final concentration of the probe remained 10 μM. Aliquots containing 1 μl of each peptide in various concentrations (100, 50, 25, 15, 10, 5, 2.5 and 1 μg/ml) were added upon NPN dye stabilization. The fluorescence intensity was monitored using a Quanta Master spectrophotometer with a constant slit width of 0.5 nm, excitation and emission wavelengths set at 355 nm and 405 nm respectively. The peptide concentration required for half-maximal intensity (PC50) was determined by sigmoidal curve fitting using Graphpad Prism software. The experimental data is average of two independent titration experiments.

[2] = system: LPS (E. coli serotype 055:B5); assay: BODIPY TR cadaverine (BC) displacement assay with LPS; type: binding; conditions: no unit in table; ED50 values in μM; 5 mM HEPES pH 7.4; duplicates; read-out: BC50 (LPS binding)
Method in brief: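 Peptides (0.02–25.6 μM, two-fold dilutions) mixed 1:1 with BODIPY TR cadaverine:LPS (E. coli 055:B5) mixture in 5 mM HEPES pH 7.4; fluorescence at 580/620 nm. Displacement normalized to polymyxin B (Fmax) and probe:LPS alone (F0); ED50 from curve fit, duplicates.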

K. pneumoniae ATCC10031 = type: cell-based; conditions: ATCC10031, 24 h
Description: as §1

P. aeruginosa 23155 = type: cell-based; conditions: 23155, 24 h
Description: as §1

P. aeruginosa ATCC 27853 [3] = type: cell-based; conditions: ATCC 27853; for Fractional inhibitory concentration of peptide/PMB, combination with Genta: first number in parenthesis; for Fractional inhibitory concentration of antibiotic, Genta combination: second number in parenthesis
Method in brief: (§2)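 Checkerboard combinations of peptide and antibiotic, each 2-fold diluted up to 1× MIC in MHB, were tested against ~10^6 CFU/ml final inoculum. Plates were incubated 24 h at 37 °C, with growth read at OD600. FICI was the sum of the combination-to-alone MIC ratios for each agent, and the lowest FICI from duplicate experiments was reported.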

P. aeruginosa DR4877/07 = type: cell-based; conditions: for Fractional inhibitory concentration of peptide/PMB, combination with Chloarm / Fractional inhibitory concentration of peptide/PMB, combination with Erythro / Fractional inhibitory concentration of peptide/PMB, combination with Levo / Fractional inhibitory concentration of peptide/PMB, combination with Tobra: first number in parenthesis; for Fractional inhibitory concentration of antibiotic, Chloarm combination / Fractional inhibitory concentration of antibiotic, Erythro combination / Fractional inhibitory concentration of antibiotic, Levo combination / Fractional inhibitory concentration of antibiotic, Tobra combination: second number in parenthesis
Method in brief: as §2

K. pneumonia 4299 = assay: microbe, parasite or virus in culture; type: cell-based, K. pneumoniae; conditions: 24 h
Description: as §1

| Compound | Minimum Inhibitory Concentration against P. aeruginosa ATCC 27853 (P. aeruginosa ATCC 27853 [1]) [µM] | EC50 (P. aeruginosa ATCC 9027) [µM] | EC50 [2] [µM] | Minimum Inhibitory Concentration against K. pneumoniae ATCC10031 (K. pneumoniae ATCC10031) [µM] | Minimum Inhibitory Concentration against P. aeruginosa 23155 (P. aeruginosa 23155) [µM] | Fractional inhibitory concentration of peptide/PMB, combination with Genta (P. aeruginosa ATCC 27853 [3]) | Fractional inhibitory concentration of antibiotic, Genta combination (P. aeruginosa ATCC 27853 [3]) | Fractional inhibitory concentration of peptide/PMB, combination with Chloarm (P. aeruginosa DR4877/07) | Fractional inhibitory concentration of peptide/PMB, combination with Erythro (P. aeruginosa DR4877/07) | Fractional inhibitory concentration of peptide/PMB, combination with Levo (P. aeruginosa DR4877/07) | Fractional inhibitory concentration of peptide/PMB, combination with Tobra (P. aeruginosa DR4877/07) | Fractional inhibitory concentration of antibiotic, Chloarm combination (P. aeruginosa DR4877/07) | Fractional inhibitory concentration of antibiotic, Erythro combination (P. aeruginosa DR4877/07) | Fractional inhibitory concentration of antibiotic, Levo combination (P. aeruginosa DR4877/07) | Fractional inhibitory concentration of antibiotic, Tobra combination (P. aeruginosa DR4877/07) | Minimum Inhibitory Concentration against K. pneumonia 4299 (K. pneumonia 4299) [µM] |
| --- | --- | --- | --- | --- | --- | --- | --- | --- | --- | --- | --- | --- | --- | --- | --- | --- |
| N=C(N)NCCC[C@H](NC(=O)CNC(=O)[C@@H](N)CCCNC(=N)N)C(=O)N[C@@H](CCCCN)C(=O)N[C@@H](Cc1ccc(-c2ccccc2)cc1)C(=O)N[C@@H](Cc1ccc(-c2ccccc2)cc1)C(=O)N[C@@H](CCCNC(=N)N)C(=O)N[C@@H](CCCNC(=N)N)C(=O)NCCCC[C@H](NC(=O)[C@H](CCCNC(=N)N)NC(=O)[C@H](CCCNC(=N)N)NC(=O)[C@H](Cc1ccc(-c2ccccc2)cc1)NC(=O)[C@H](Cc1ccc(-c2ccccc2)cc1)NC(=O)[C@H](CCCCN)NC(=O)[C@H](CCCNC(=N)N)NC(=O)CNC(=O)[C@@H](N)CCCNC(=N)N)C(=O)N[C@@H](CCCCN)C(=O)O [(RGRKFbiFbiRR)2KK] (I: H-RGRK[Bip][Bip]RRKK-OH / II: H-RGRK[Bip][Bip]RR; amide I:9-II:C; N-terminus and C-terminus assumed) | 9.8 | 22.2 ± 1.6 | 2.33 ± 0.06 | 9.8 | 4.9 | 0.5 | 0.06 | 0.5 | (0.5,0.5) | (0.5,0.5) | (0.25,0.25) | 0.06 | (0.5,0.5) | (0.5,0.5) | (0.25,0.25) | 19.6 |
| CCCC[C@H](NC(=O)[C@H](CCCCN)NC(=O)[C@H](CCCNC(=N)N)NC(=O)CNC(=O)[C@@H](N)CCCNC(=N)N)C(=O)N[C@@H](CCCC)C(=O)N[C@@H](CCCNC(=N)N)C(=O)N[C@@H](CCCNC(=N)N)C(=O)NCCCC[C@H](NC(=O)[C@H](CCCNC(=N)N)NC(=O)[C@H](CCCNC(=N)N)NC(=O)[C@H](CCCC)NC(=O)[C@H](CCCC)NC(=O)[C@H](CCCCN)NC(=O)[C@H](CCCNC(=N)N)NC(=O)CNC(=O)[C@@H](N)CCCNC(=N)N)C(=O)N[C@@H](CCCCN)C(=O)O [(RGRKNleuNleuRR)2KK] (I: H-RGRK[Nle][Nle]RRKK-OH / II: H-RGRK[Nle][Nle]RR; amide I:9-II:C; N-terminus and C-terminus assumed) | 2.7 | 16.4 ± 0.1 | 1.62 ± 0.02 | 2.7 | 2.7 | 0.5 | 0.01 | 0.5 | 0.5 | 0.5 | 0.06 | 0.06 | 0.03 | 0.25 | 0.5 | 5.3 |
| CCC[C@H](NC(=O)[C@H](CCCCN)NC(=O)[C@H](CCCNC(=N)N)NC(=O)CNC(=O)[C@@H](N)CCCNC(=N)N)C(=O)N[C@@H](CCC)C(=O)N[C@@H](CCCNC(=N)N)C(=O)N[C@@H](CCCNC(=N)N)C(=O)NCCCC[C@H](NC(=O)[C@H](CCCNC(=N)N)NC(=O)[C@H](CCCNC(=N)N)NC(=O)[C@H](CCC)NC(=O)[C@H](CCC)NC(=O)[C@H](CCCCN)NC(=O)[C@H](CCCNC(=N)N)NC(=O)CNC(=O)[C@@H](N)CCCNC(=N)N)C(=O)N[C@@H](CCCCN)C(=O)O [(RGRKNvalNvalRR)2KK] (I: H-RGRK[Nva][Nva]RRKK-OH / II: H-RGRK[Nva][Nva]RR; amide I:9-II:C; N-terminus and C-terminus assumed) | 10.9 | 14.9 ± 1.2 | 1.45 ± 0.01 | 10.9 | 5.5 | – | 0.13 | (0.25,0.25) | (0.5,0.5) | 0.5 | 0.25 | (0.25,0.25) | (0.5,0.5) | 0.25 | 0.13 | 21.8 |
